Assay results: patent publication US4803167A, “Monoclonal antidigoxtin antibodies” (The General Hospital Corporation, priority 1982, dated 1989)
Where two headings read alike, the source gives them in different places.

Assays:
Test in all cases: Specificity determination, inhibition of [3H]digoxin binding in dextran charcoal RIA
[1] = system: monoclonal anti-digoxin antibody Dig 26-40; parameters: species or system mouse (A/J); conditions: for amount of inhibitor required to give 50% inhibition relative to the amount of digoxin which gave 50% inhibition: inhibition of antibody binding to [3H]digoxin
Protocol: (§1) The specificity of each antidigoxin antibody for related cardiac glycosides was assessed by the inhibition of binding of antibody in the dextran charcoal radioimmunoassay Smith (1972), supra. To a constant amount of H^3 -digoxin (1.5 ng) in 1 ml of buffer is added different amounts ([…]) of various cardiac glycosides: digoxin, digitoxin, digitoxigenin, digoxigenin, acetyl-strophanthidin, ouabain, deslanoside, and endogenous steroids such as chloresterol, cortisol, androsterone, 17-[beta]-estradiol, progesterone, and testosterone. After 5 minutes, a constant amount of anti-digoxin antibody was added and the assay was continued as described above. Comparison among different antidigoxin antibodies with respect to their fine specificity was made by determining the amount of cardiac glycoside required to achieve 50% inhibition relative to that required for cold digoxin.
(§2) Specificity of monoclonal antibody binding site for related cardiac glycosides was examined by means of hapten inhibition experiments in which the binding of monoclonal antibody to H^3 -digoxin was inhibited by cold digoxin and related cardiac glycosides.

[2] = system: monoclonal anti-digoxin antibody Dig 35-20; parameters: species or system mouse (A/J); conditions: for amount of inhibitor required to give 50% inhibition relative to the amount of digoxin which gave 50% inhibition: inhibition of antibody binding to [3H]digoxin
Protocol: as §1, §2

[3] = system: monoclonal anti-digoxin antibody Dig 26-10; parameters: species or system mouse (A/J); conditions: for amount of inhibitor required to give 50% inhibition relative to the amount of digoxin which gave 50% inhibition: inhibition of antibody binding to [3H]digoxin
Protocol: as §1, §2

[4] = system: monoclonal anti-digoxin antibody Dig 26-20; parameters: species or system mouse (A/J); conditions: for amount of inhibitor required to give 50% inhibition relative to the amount of digoxin which gave 50% inhibition: inhibition of antibody binding to [3H]digoxin
Protocol: as §1, §2

[5] = system: monoclonal anti-digoxin antibody Dig 26-30; parameters: species or system mouse (A/J); conditions: for amount of inhibitor required to give 50% inhibition relative to the amount of digoxin which gave 50% inhibition: inhibition of antibody binding to [3H]digoxin
Protocol: as §1, §2

[6] = system: monoclonal anti-digoxin antibody Dig 25-54; parameters: species or system mouse (A/J); conditions: for amount of inhibitor required to give 50% inhibition relative to the amount of digoxin which gave 50% inhibition: inhibition of antibody binding to [3H]digoxin
Protocol: as §1, §2

[7] = system: Sheep Anti-Dig Serum (heterogeneous anti-digoxin antiserum); conditions: inhibition of antibody binding to [3H]digoxin
Protocol: Antisera specific for digoxin was prepared in sheep as previously described by Curd et al, Proc. Nat. Acad. Sci. 65: 2401 (1971). High affinity antidigoxin sheep antisera was used in the clinical RIA for digoxin (described below).
as §1, §2

[8] = highest concentration tested 10^-4 M

Compound | inhibition of binding of [3H]digoxin by endogenous steroids [1, 8] | inhibition of binding of [3H]digoxin by endogenous steroids [2, 8] | inhibition of binding of [3H]digoxin by endogenous steroids [3, 8] | inhibition of binding of [3H]digoxin by endogenous steroids [4, 8] | inhibition of binding of [3H]digoxin by endogenous steroids [5, 8] | inhibition of binding of [3H]digoxin by endogenous steroids [6, 8] | amount of inhibitor required to give 50% inhibition relative to the amount of digoxin which gave 50% inhibition [1] | amount of inhibitor required to give 50% inhibition relative to the amount of digoxin which gave 50% inhibition [2] | amount of inhibitor required to give 50% inhibition relative to the amount of digoxin which gave 50% inhibition [3] | amount of inhibitor required to give 50% inhibition relative to the amount of digoxin which gave 50% inhibition [4] | amount of inhibitor required to give 50% inhibition relative to the amount of digoxin which gave 50% inhibition [5] | amount of inhibitor required to give 50% inhibition relative to the amount of digoxin which gave 50% inhibition [6] | also measured
4-androstedione |  |  |  |  |  |  |  |  |  |  |  |  | inhibition of binding of [3H]digoxin by endogenous steroids [1]: No significant inhibition; inhibition of binding of [3H]digoxin by endogenous steroids [2]: No significant inhibition; inhibition of binding of [3H]digoxin by endogenous steroids [3]: No significant inhibition; inhibition of binding of [3H]digoxin by endogenous steroids [4]: No significant inhibition; inhibition of binding of [3H]digoxin by endogenous steroids [5]: No significant inhibition; inhibition of binding of [3H]digoxin by endogenous steroids [6]: No significant inhibition
C[C@]12CC[C@@H]3c4ccc(O)cc4CC[C@H]3[C@@H]1CC[C@@H]2O [17-[beta]-estradiol] | No significant inhibition | No significant inhibition | No significant inhibition | No significant inhibition | No significant inhibition | No significant inhibition |  |  |  |  |  |  | 
CC(=O)O[C@H]1CC[C@]2(C=O)[C@H]3CC[C@]4(C)[C@@H](C5=CC(=O)OC5)CC[C@]4(O)[C@@H]3CC[C@]2(O)C1 [Acetylstrophanthidin] |  |  |  |  |  |  | 2.30 | 110 | 1.50 | 0.70 | 0.85 | > 100 | 
C[C@H]1O[C@@H](O[C@H]2CC[C@@]3(C)[C@H](CC[C@@H]4[C@@H]3C[C@@H](O)[C@]3(C)[C@@H](C5=CC(=O)OC5)CC[C@]43O)C2)C[C@H](O)[C@@H]1O[C@H]1C[C@H](O)[C@H](O[C@H]2C[C@H](O)[C@H](O[C@@H]3O[C@H](CO)[C@@H](O)[C@H](O)[C@H]3O)[C@@H](C)O2)[C@@H](C)O1 [Deslanoside] |  |  |  |  |  |  | 2.0 | 3.7 | 2.6 | 1.5 | 1.6 | 4.3 | 
C[C@]12CC[C@H](O)C[C@H]1CC[C@@H]1[C@@H]2CC[C@]2(C)[C@@H](C3=CC(=O)OC3)CC[C@]12O [Digitoxigenin] |  |  |  |  |  |  | 4.0 | 2.7 | 3.7 | 2.2 | 3.6 | 54.0 | amount of inhibitor required to give 50% inhibition relative to the amount of digoxin which gave 50% inhibition [7]: 860.0
C[C@H]1O[C@@H](O[C@H]2[C@@H](O)C[C@H](O[C@H]3[C@@H](O)C[C@H](O[C@H]4CC[C@@]5(C)[C@H](CC[C@@H]6[C@@H]5CC[C@]5(C)[C@@H](C7=CC(=O)OC7)CC[C@]65O)C4)O[C@@H]3C)O[C@@H]2C)C[C@H](O)[C@@H]1O [Digitoxin] |  |  |  |  |  |  | 1.4 | 4.6 | 1.3 | 1.0 | 2.6 | 1.8 | amount of inhibitor required to give 50% inhibition relative to the amount of digoxin which gave 50% inhibition [7]: 152.0; amount of inhibitor required to give 50% inhibition relative to the amount of digoxin which gave 50% inhibition ([7]; listed as digitoxin): 150
C[C@@H]1O[C@@H](O[C@H]2C[C@@H](O)[C@]3(CO)[C@H]4[C@H](O)C[C@]5(C)[C@@H](C6=CC(=O)OC6)CC[C@]5(O)[C@@H]4CC[C@]3(O)C2)[C@H](O)[C@H](O)[C@H]1O [Ouabain] |  |  |  |  |  |  | 78 | 333 | 66 | 53 | 84 | > 100 | amount of inhibitor required to give 50% inhibition relative to the amount of digoxin which gave 50% inhibition [7]: > 10^5
CC(C)CCC[C@@H](C)[C@H]1CC[C@H]2[C@@H]3CC=C4C[C@@H](O)CC[C@]4(C)[C@H]3CC[C@]12C [cholesterol] | No significant inhibition | No significant inhibition | No significant inhibition | No significant inhibition | No significant inhibition | No significant inhibition |  |  |  |  |  |  | 
C[C@]12CCC(=O)C=C1CC[C@@H]1[C@@H]2[C@@H](O)C[C@@]2(C)[C@H]1CC[C@]2(O)C(=O)CO [cortisol] | No significant inhibition | No significant inhibition | No significant inhibition | No significant inhibition | No significant inhibition | No significant inhibition |  |  |  |  |  |  | 
CC(=O)[C@H]1CC[C@H]2[C@@H]3CCC4=CC(=O)CC[C@]4(C)[C@H]3CC[C@]12C [progesterone] | No significant inhibition | No significant inhibition | No significant inhibition | No significant inhibition | No significant inhibition | No significant inhibition |  |  |  |  |  |  | 
C[C@]12CC[C@H]3[C@@H](CCC4=CC(=O)CC[C@@]43C)[C@@H]1CC[C@@H]2O [testosterone] |  |  |  |  |  |  |  |  |  |  |  |  | inhibition of binding of [3H]digoxin by endogenous steroids [1]: No significant inhibition; inhibition of binding of [3H]digoxin by endogenous steroids [2]: No significant inhibition; inhibition of binding of [3H]digoxin by endogenous steroids [3]: No significant inhibition; inhibition of binding of [3H]digoxin by endogenous steroids [4]: No significant inhibition; inhibition of binding of [3H]digoxin by endogenous steroids [5]: No significant inhibition; inhibition of binding of [3H]digoxin by endogenous steroids [6]: No significant inhibition
